Literature values as cited in PMC9880028 (Drug Design, Development and Therapy, 2023).

Tested on: WNK1
Conditions: read-out: IC50 (WNK1); only WNK1 inhibitor published when the screen was conducted; ref US Patent application US 2008/0286809 A1, Dario Alessi

## Cc1cc(O)c2c(=O)c3c(O)cc(O)c4c5c(O)cc(O)c6c(=O)c7c(O)cc(C)c8c1c2c(c34)c(c78)c65 [hypericin]
  IC50: 200 µM
